From patent EP0103895A2, “Novel hydroxylamine derivatives, production and use thereof” (MEIJI SEIKA KABUSHIKI KAISHA, priority 1982, dated 1984) come the findings set out here.

The subject of assay [1] is fowl roundworm (Ascaridia galli). The experiment in a line: Anthelmintic test in chickens artificially infected with fowl roundworm, single oral dose in gelatin capsule, worm bodies counted within 48 hours (Test Examples A1, B1, C1, D1). The note with it: Ascaridia galli, po, 48 h, read-out: Anthelmintic effect after 48 hours. The assay is classed as in vivo. Put shortly: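 Groups of three chickens with confirmed Ascaridia galli infection given a single oral dose in gelatin capsule (10 and 20 mg/kg in A1 and B1; 30 and 50 mg/kg in C1; 15 and 30 mg/kg in D1). Worms expelled over 48 h and those remaining in the gut at necropsy counted to give anthelmintic percentage.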

For assay [2], the system named is fowl roundworm (As. galli). The assay can be described thus: Anthelmintic test in chickens artificially infected with fowl roundworm, compound added to feed, E.P.G. and worm count up to 21st day (Test Examples A2, B2, C2, D2). The assay is classed as in vivo, Ascaridia galli.
Assay [3] deals with swine roundworm (Ascaris suum). The experiment in a line: Test of anthelmintic effect in naturally infected pigs, E.P.G. on 7th day: swine roundworm (Test Examples A9, B9, C9, D9). The assay is classed as in vivo. The procedure:
(§1) Six pigs infected with swine roundworm and swine whipworm (naturally infected pigs) were employed in groups each of two pigs.
(§2) As a control, only gelatin capsules were administered orally to the two pigs.
(§3) Before administration and on the 7th day after. administration, fecal matter testing was conducted to calculate the E.P.G., and the anthelmintic effect was judged by the changing of the E.P.G. to negative'.
(§4) 50 mg of each compound was placed in a gelatin capsule per 1 Kg of body weight and administered orally to each of the two pigs. As control, only gelatin capsules were administered orally to two pigs.
(§5) 30 mg of each compound was placed in a gelatin capsule per 1 Kg of body weight and administered orally to each of the two pigs. As control, only gelatin capsules were administered orally to two pigs.

For assay [4], the system named is swine whipworm (Trichuris suis). The experiment in a line: Test of anthelmintic effect in naturally infected pigs, E.P.G. on 7th day: swine whipworm (Test Examples A9, B9, C9, D9). Type of assay: in vivo. As for the experimental part:
as §1, §2, §3, §4, §5

The test system of assay [5] is Liver fluke; Fasciola hepatica (F. hepatica). The experiment in a line: Test of anthelmintic effect against rat infected experimentally with liver fluke (Test Examples A11, B11, C11, D11). The note with it: for anthelmintic effect: rats, five administrations in a dose of 50 mg/Kg each. Type of assay: in vivo.
Assay [6] deals with Diphyllobothrium erinacei. The assay can be described thus: Test of anthelmintic effect against Diphyllobothrium erinacei (tapeworm) in experimentally infected cats (Test Examples A5, B5, C5, D5).
In assay [7] the test system is canine whipworm (Trichuris vulpis). The assay can be described thus: Anthelmintic test in naturally infected dogs with mixed infections, E.P.G. on 7th day: canine whipworm (Test Examples A3, B3, C3, D3). Type of assay: in vivo. To be noted: for Change of E.P.G. 7th day: one administration; for anthelmintic effect: dogs with mixed infections (Trichuris vulpis, Ancylostoma caninum, Toxocara canis; statement covers all three). The procedure: (§6) Three dogs with mixed infections by canine whipworm (Trichuris vulpis), canine hookworm (Ancylostoma caninum) and canine roundworm (Toxocara canis) (naturally infected dogs) were employed in a group of two and a group of one.
(§7) The compound provided for the test was Compound No.Al, and 20 mg/Kg thereof was placed in a gelatin capsule per 1 Kg of body weight, and administered orally to the two dogs. As control, only a gelatin capsule was administered orally to the one dog.
(§8) Before administration and on the 7th day after administration, fecal matter testing was conducted to calculate the E.P.G., and the anthelmintic effect was judged by the changing of the E.P.G. to negative.
(§9) As control, only gelatin capsules were administered orally to the one dog.
(§10) The same method as in Test Example A3, but the compound provided for the test was Compound No. Cl. 30 mg/Kg of this compound was placed in a gelatin capsule per 1 Kg of body weight and administered orally to the two dogs. As control, only gelatin capsules were administered orally to the one dog.

Assay [8] relates to canine hookworm (Ancylostoma caninum). The experiment in a line: Anthelmintic test in naturally infected dogs with mixed infections, E.P.G. on 7th day: canine hookworm (Test Examples A3, B3, C3, D3). Type of assay: in vivo. The note with it: dog; for Change of E.P.G. 7th day: one administration. As for the experimental part: as §6, §7, §8, §9, §10
Assay [9] deals with canine roundworm (Toxocara canis). The assay can be described thus: Anthelmintic test in naturally infected dogs with mixed infections, E.P.G. on 7th day: canine roundworm (Test Examples A3, B3, C3, D3). Type of assay: in vivo. The note with it: dog; for Change of E.P.G. 7th day: one administration. As for the experimental part:
as §6, §7, §8, §9, §10

In assay [10] the test system is stomach worm (Haemonchus controtus). The assay can be described thus: Anthelmintic test against cow stomach worm in naturally infected cows, E.P.G. on 7th day (Test Examples A6, B6, C6, D6). To be noted: for Change of E.P.G. 7th day / Change of E.P.G. Before administration: cow, Haemonchus controtus; for Change of E.P.G. 7th day: one administration; for anthelmintic effect: cows. Type of assay: in vivo. As for the experimental part:
Three cows infected with stomach worm (naturally infected cows) were employed by grouping them into a group of two and a group of one.
(§11) As control, only gelatin capsules were administered orally to the one cow.
as §8, §11, §11

Assay [11] has as its system canine filaria; Dirofilaria immitis. The assay can be described thus: Test of anthelmintic effect against canine filaria in naturally infected dogs, subcutaneous injection, microfilaria in blood and adult filaria at autopsy (Test Examples A10, B10, C10, D10). Type of assay: in vivo. The note with it: for inhibition in vivo at 30 mg/kg: Dirofilaria immitis, sc, 240 h.
Assay [12] deals with Trichostrongylidae (Trichostrongylus colubriformis). The experiment in a line: Anthelmintic test against sheep Trichostrongylidae in naturally infected sheep, E.P.G. on 7th day (Test Examples A7, B7, C7, D7). The assay is classed as in vivo. The procedure: Two sheep infected with Trichostrongylidae (naturally infected sheep) were employed.
The compound provided for the test was Compound No. Al, 15 mg of which was placed in a gelatin capsule per 1 Kg of body weight and administered orally to one of the sheep. As a control, only gelatin capsules were administered orally to the other sheep.
as §8
As control, only gelatin capsules were administered orally to the other sheep.
As control, only gelatin capsule was administered orally to the other sheep.

[13] abbreviates: chicken, 30 mg/Kg oral in gelatin capsule, chickens No.1-3.
Where [14] appears, read: Ascaridia galli, feed or water, 504 h, chicken, 25 ppm in feed, read-out: Anthelmintic effect.
The mark [15] stands for this setting: Ascaridia galli, feed or water, 504 h, chicken, 50 ppm in feed, read-out: Anthelmintic effect.
Setting [16] is: 30 mg/Kg oral in gelatin capsule.
Setting [17] is: before 30 mg/Kg oral (baseline).

SMILES strings stand for the structures. Where “and” joins values, the source holds several entries; their conditions need not be identical. Equal values may be shown once. Read-outs that look alike come from different tables or passages of the source. A value given as a limit tells only on which side of the number the result lay.

On to `C=CCN(OCCCC)C(=O)c1ccccc1` [Compound B19, N-allyl-N-benzoyl-0-butylhydroxylamine], for which the inhibition in vivo at 30 mg/kg in assay [1] (chickens, 30 mg/Kg orally in gelatin capsule, one value per chicken (No.1-3)) came out at 100%. For the same compound, in assay [1] (chickens, 50 mg/Kg orally in gelatin capsule, one value per chicken (No.1-3)), the inhibition in vivo at 50 mg/kg was determined as 100%. In addition, the inhibition in vivo at 20 ppm in assay [2] (Ascaridia galli, po, 504 h, chickens, 20 ppm added to feed, worm count on 21st day, one value per chicken, read-out: Anthelmintic effect) was in the range of 80 to 90%. In addition, the inhibition in vivo at 50 ppm in [2] (Ascaridia galli, po, 504 h, chickens, 50 ppm added to feed, worm count on 21st day, one value per chicken, read-out: Anthelmintic effect) worked out at 100%. Also, the “anthelmintic effect” value is on record as “marked anthelmintic effect” in assay [3] (pigs infected with swine roundworm and swine whipworm (statement covers both), one administration of 50 mg/Kg); “marked antihelmintic effect” in assay [5]; “marked anthelmintic effects” in assay [6] (cats, 5 continuous administrations of 50 mg/Kg). In addition, the “Change of E.P.G. 7th day” value in assay [3] (pigs, 50 mg/Kg orally once, Ascaris suum, one value per pig) is given as 0 E.P.G; in assay [4] (pigs, 50 mg/Kg orally once, one value per pig) it was 0 E.P.G. Besides, the “Condition of fluke body” value in assay [5] (rat, 50 mg/Kg x 5) is “dead”. For the same compound, the “Presence or absence of fluke egg in fecal matter On 21st day after the last administration” value in assay [5] (rat, 50 mg/Kg x 5) is recorded as “-”. Also, the “Number of worm bodies remaining in enteron” value in assay [6] (cats infected with 5 plerocercoids, 50 mg/Kg x 5 times orally, autopsy ten days after administration, one value per cat) turned out to be 0. Further, the “Worm egg detection on 10th day after administration” value in assay [6] (cats, 50 mg/Kg x 5 orally, one value per cat (Table B7)) is listed as “-”.

In the case of `C=CCON(CC=C)C(C)=O` [Compound C1, N,O-diallyl-N-acetylhydroxyl- amine], the inhibition in vivo at 30 mg/kg in assay [1] (setting [13]) is 100%; in [11] (dog, 30 mg/Kg x 3, subcutaneous injection, read-out: Effect on adult filaria: Percent of worms killed) it was 86%; in [11] (dogs, administration of 30 mg/Kg repeated three times, given as about 50% or more, read-out: anthelmintic effect against adult filaria), no less than 50%. Besides, in assay [1] (chicken, 50 mg/Kg oral in gelatin capsule, chickens No.1-3), the inhibition in vivo at 50 mg/kg is 100%. Also, in [2] (setting [14]), the inhibition in vivo at 25 ppm was 100%. Besides, in assay [2] (setting [15]), the inhibition in vivo at 50 ppm turned out to be 100%. The “Change of E.P.G. 21st day” value came to 0 in [2] (chicken, 25 ppm in feed) and 0 in [2] (chicken, 50 ppm in feed). Further, the “Change of E.P.G. 7th day” value in assay [7] (dog, Trichuris vulpis, 30 mg/Kg oral in gelatin capsule) amounted to 0; in assay [8] (setting [16]), 0; in [9] (setting [16]), 0; in assay [10] (20 mg/Kg oral in gelatin capsule), 0. The “Change of E.P.G. Before administration” value in assay [7] (dog, Trichuris vulpis, before 30 mg/Kg oral (baseline)) was 2,300 and 4,200; in assay [8] (setting [17]), 4,500 and 6,600; in assay [9] (setting [17]), 3,300 and 3,100; in [10] (before 20 mg/Kg oral (baseline)), 2,200 and 1,400. The “anthelmintic effect” value in assay [7] (one administration of 30 mg/Kg) and in assay [10] (one administration of 20 mg/Kg) was “marked anthelmintic effect” throughout. Further, the “Number of microfilaria/20 µl On 10th day after the last administration” value in assay [11] (dog, 30 mg/Kg x 3, subcutaneous injection, suspension in 1% Tween 80) is recorded as 0 /20 µl. Besides, the “Effect on adult filaria: Number of worms killed/ Total parasite” value in [11] (dog, 30 mg/Kg x 3, subcutaneous injection, 30 mg/kg) is 13/15 and 16/21. Moreover, in [11] (dogs, administration of 30 mg/Kg repeated three times), the “anthelmintic effect against microfilaria (mf)” value is reported as “marked anthelmintic effect”.

In the case of `C=CCNOCC.Cl` [Compound D1, N-allyl-O-ethylhydroxylamine hydrochloride], in [1] (chicken, 15 mg/Kg oral in gelatin capsule, chickens No.1-3), the inhibition in vivo at 15 mg/kg was 80 to 90%. The inhibition in vivo at 30 mg/kg in assay [1] (setting [13]) amounted to 100%. Besides, the inhibition in vivo at 25 ppm in assay [2] (setting [14]) lay in the range of 80 to 90%. In addition, in [2] (setting [15]), the inhibition in vivo at 50 ppm amounted to 100%. Moreover, the “Change of E.P.G. 7th day” value in [10] (15 mg/Kg) came out at 0; in assay [12] (Trichostrongylus colubriformis, 15 mg/Kg, one administration), 0; in [3] (pig, Ascaris suum, 20 mg/Kg, one administration), 0; in assay [4] (pig, 20 mg/Kg, one administration) it was 0. The “Change of E.P.G. Before administration” value in assay [10] (before 15 mg/Kg (baseline), hydrochloride) is 3,700 and 5,400; in assay [12] (Trichostrongylus colubriformis, before 15 mg/Kg (baseline)), 2,900; in assay [3] (pig, Ascaris suum, before 20 mg/Kg (baseline), hydrochloride), 2,700 and 3,100; in [4] (pig, before 20 mg/Kg (baseline), hydrochloride) it was 6,600 and 4,200. In addition, the “anthelmintic effect” value in assay [10] (one administration of 15 mg/Kg) and in assay [12] (one administration of 15 mg/Kg) was “marked anthelmintic effect” throughout.

Turning to `C#CCNOCC=C.Cl` [Compound D14, N-propargyl-O-allylhydroxylamine hydrochloride], the inhibition in vivo at 25 ppm in assay [2] (setting [14]) lay within 80 to 90%. Also, in assay [2] (setting [15]), the inhibition in vivo at 50 ppm stood at 100%. Moreover, the “Change of E.P.G. 7th day” value is listed as 0 in assay [7] (dog, Trichuris vulpis, 20 mg/Kg); 0 in assay [8] (20 mg/Kg); 0 in assay [9] (20 mg/Kg). In addition, the “anthelmintic effect” value in [7] (one administration of 20 mg/Kg) and in [5] was “marked anthelmintic effect” each time. Further, in assay [8] (before 20 mg/Kg (baseline), hydrochloride), the “Change of E.P.G. Before administration” value was 3,300 and 6,800. The “Condition of fluke bodies” value in [5] (rat, 50 mg/Kg x 5) is listed as “dead”. The “Presence or absence of fluke egg in fecal matter On 21st day after the last administration” value in [5] (rat, 50 mg/Kg x 5) is “-”.
